{
  "source": "ChEMBL document CHEMBL5608163",
  "about": "“Structure modification of anoplin for fighting resistant bacteria” (Eur J Med Chem, 2024)",
  "key": {"Erythrocyte": {"system": "Erythrocyte", "experiment": "Hemolytic activity in erythrocytes (unknown origin)", "format": "toxicity, cell-based"}, "Staphylococcus aureus [1]": {"system": "Staphylococcus aureus", "experiment": "Antibacterial activity against methicillin resistant Staphylococcus aureus ATCC 33591 assessed as inhibition of bacterial growth incubated for 16 to 20 hrs by broth micro-dilution method", "format": "functional", "conditions": "time 16-20 hrs"}, "Enterococcus faecium [2]": {"system": "Enterococcus faecium", "experiment": "Antibacterial activity against Vancomycin resistant Enterococcus faecium ATCC 700221 assessed as inhibition of bacterial growth incubated for 16 to 20 hrs by broth micro-dilution method", "format": "functional", "conditions": "time 16-20 hrs"}, "Escherichia coli [3]": {"system": "Escherichia coli", "experiment": "Antibacterial activity against Escherichia coli ATCC 25922 assessed as reduction in bacterial growth incubated for 48 hrs by Mueller-Hinton broth based microdilution method", "format": "functional"}, "Staphylococcus aureus [4]": {"system": "Staphylococcus aureus", "experiment": "Antibacterial activity against Staphylococcus aureus ATCC 25923 assessed as reduction in bacterial growth incubated for 48 hrs by Mueller-Hinton broth based microdilution method", "format": "functional"}, "[5]": {"experiment": "Hemolytic activity in human erythrocyte incubated for 1 hr", "format": "toxicity, cell-based", "conditions": "erythrocytes"}, "[6]": {"system": "Mycolicibacterium smegmatis", "experiment": "Antimycobacterial activity against Mycobacterium smegmatis mc2 155 assessed as reduction in bacterial cell growth incubated for 24 hrs by resazurin dye based broth microdilution method", "format": "functional"}, "Bacillus subtilis [7]": {"system": "Bacillus subtilis", "experiment": "Antimicrobial activity against Bacillus subtilis assessed as microbial growth inhibition incubated for 24 hrs by broth micro-dilution method", "format": "functional"}, "Escherichia coli [8]": {"system": "Escherichia coli", "experiment": "Antibacterial acitivity against Escherichia coli DH5a assessed as bacterial growth inhibition incubated for 24 hrs by broth micro-dilution method", "format": "functional"}, "Pseudomonas aeruginosa [9]": {"system": "Pseudomonas aeruginosa", "experiment": "Antimicrobial activity against Pseudomonas aeruginosa assessed as inhibition of microbial growth incubated for 24 hrs by microdilution method", "format": "functional"}, "[10]": {"experiment": "Hemolytic activity against human Red blood cells assessed as cell lysis", "format": "toxicity, cell-based, Erythrocyte"}, "Zymomonas mobilis": {"system": "Zymomonas mobilis", "experiment": "Antibacterial activity against Zymomonas mobilis ATCC 10988 assessed as reduction in bacterial growth incubated for 24 hrs by broth micro-dilution method", "format": "functional"}, "Staphylococcus aureus [11]": {"system": "Staphylococcus aureus", "experiment": "Antibacterial activity against Staphylococcus aureus assessed as bacterial growth inhibition incubated for 20 hrs by broth microdilution assay", "format": "functional"}, "Escherichia coli [12]": {"system": "Escherichia coli", "experiment": "Antibacterial activity against Escherichia coli assessed as reduction in bacterial growth incubated for 20 hrs by broth microdilution assay", "format": "functional"}, "Bacillus subtilis [13]": {"system": "Bacillus subtilis", "experiment": "Antibacterial activity against Bacillus subtilis assessed as reduction in bacterial growth incubated for 20 hrs by broth microdilution assay", "format": "functional"}, "Pseudomonas aeruginosa [14]": {"system": "Pseudomonas aeruginosa", "experiment": "Antibacterial activity against Pseudomonas aeruginosa assessed as reduction in bacterial growth incubated for 20 hrs by broth microdilution assay", "format": "functional"}, "[15]": {"experiment": "Hemolytic activity against Red blood cells (unknown origin) incubated for 1 hr by spectrophotometric analysis", "format": "toxicity, cell-based, Erythrocyte"}, "Escherichia coli [16]": {"system": "Escherichia coli", "experiment": "Antibacterial activity against Escherichia coli ATCC 25922 assessed as reduction in bacterial growth incubated for 18 to 24 hrs by broth microdilution method", "format": "functional", "conditions": "time 18-24 hrs"}, "Pseudomonas aeruginosa [17]": {"system": "Pseudomonas aeruginosa", "experiment": "Antibacterial activity against Pseudomonas aeruginosa ATCC 15442 assessed as reduction in bacterial cell growth incubated for 18 to 24 hrs by two fold serial microdilution method", "format": "functional", "conditions": "time 18-24 hrs"}, "[18]": {"experiment": "Hemolytic activity in human RBC", "format": "toxicity, cell-based, Erythrocyte", "conditions": "red blood cells"}, "Enterococcus faecium [19]": {"system": "Enterococcus faecium", "experiment": "Antibacterial activity against vancomycin resistant Enterococcus faecium NCTC 12204 assessed as reduction in bacterial growth by microdilution broth method", "format": "functional"}, "Staphylococcus aureus [20]": {"system": "Staphylococcus aureus", "experiment": "Antibacterial activity against methicillin-resistant Staphylococcus aureus ATCC 33591 assessed as reduction in bacterial growth incubated for 16 to 24 hrs by agar dilution method", "format": "functional", "conditions": "time 16-24 hrs"}},
  "note": "Square brackets hold non-standard residues; d marks the D form. Peptide text beside a SMILES is read from it. * marks the point of attachment. Heptadecanoyl = CCCCCCCCCCCCCCCCC(=O)*; 2Nal = N[C@@H](Cc1ccc2ccccc2c1)C(=O)O; Cha = N[C@@H](CC1CCCCC1)C(=O)O",
  "data": [
    {"compound": "CC[C@@H](C)[C@@H](NC(=O)[C@H](CCCCN)NC(=O)[C@H](CCCCN)NC(=O)[C@H](CC(C)C)NC(=O)[C@H](CC(C)C)NC(=O)CN)C(=O)N[C@@H](CCCCN)C(=O)N[C@H](C(=O)N[C@@H](CC(C)C)C(=O)N[C@@H](CC(C)C)C(N)=O)[C@@H](C)O", "values": [
      {"measurement": "HC10", "setting": "Erythrocyte", "result": 7209, "unit": "µM"},
      {"measurement": "MIC", "setting": "Staphylococcus aureus [1]", "result": 1020, "unit": "µM"},
      {"measurement": "MIC", "setting": "Enterococcus faecium [2]", "result": 492, "unit": "µM"}
    ]},
    {"compound": "CCCCCCCCCCCCCCCCC(=O)NCC(=O)N[C@@H](CC(C)C)C(=O)N[C@@H](CC(C)C)C(=O)N[C@@H](CCCCN)C(=O)N[C@@H](CCCNC(=N)N)C(=O)N[C@H](C(=O)N[C@@H](CCCCN)C(N)=O)[C@@H](C)CC", "note": "(Heptadecanoyl-GLLKRIK-NH2)", "values": [
      {"measurement": "MIC", "setting": "Escherichia coli [3]", "result": 1.53, "unit": "µM"},
      {"measurement": "MIC", "setting": "Staphylococcus aureus [4]", "result": 0.76, "unit": "µM"},
      {"measurement": "HC50 at 1 h", "setting": "[5]", "result": 35.4, "unit": "µM"}
    ]},
    {"compound": "CC[C@@H](C)[C@@H](NC(=O)[C@H](CCCNC(=N)N)NC(=O)[C@H](CCCCN)NC(=O)[C@H](CC(C)C)NC(=O)[C@H](CC1CCCCC1)NC(=O)CN)C(=O)N[C@@H](CCCCN)C(=O)N[C@H](C(=O)N[C@@H](CC(C)C)C(=O)N[C@@H](CC1CCCCC1)C(N)=O)[C@@H](C)O", "values": [
      {"measurement": "HC10", "setting": "Erythrocyte", "result": 225.6, "unit": "µM"}
    ]},
    {"compound": "CC[C@H](C)[C@H](NC(=O)[C@H](CCCCN)NC(=O)[C@H](CC(C)C)NC(=O)[C@H](CC(C)C)NC(=O)CN)C(=O)N[C@H](C(=O)N[C@@H](CCCCN)C(=O)N[C@@H](CCCCN)C(=O)N[C@@H](CC(C)C)C(=O)N[C@@H](CC(C)C)C(N)=O)[C@@H](C)CC", "note": "(H-GLLKIIKKLL-NH2)", "values": [
      {"measurement": "MIC", "setting": "[6]", "result": 16.7, "unit": "µM"},
      {"measurement": "MIC", "setting": "Bacillus subtilis [7]", "result": 5.9, "unit": "µM"},
      {"measurement": "MIC", "setting": "Escherichia coli [8]", "result": 83.7, "unit": "µM"},
      {"measurement": "MIC", "setting": "Pseudomonas aeruginosa [9]", "result": 2.5, "unit": "µM"},
      {"measurement": "HC50", "setting": "[10]", "result": "> 167", "unit": "µM"},
      {"measurement": "MIC", "setting": "Zymomonas mobilis", "result": 2.5, "unit": "µM"}
    ]},
    {"compound": "CC[C@H](C)[C@H](NC(=O)[C@H](CCCCN)NC(=O)[C@H](CC(C)C)NC(=O)[C@H](CC(C)C)NC(=O)CN)C(=O)N[C@H](C(=O)N[C@@H](CCCCN)C(=O)N[C@@H](CCCNC(=N)N)C(=O)N[C@@H](CC(C)C)C(=O)N[C@@H](CC(C)C)C(N)=O)[C@@H](C)CC", "note": "(H-GLLKIIKRLL-NH2)", "values": [
      {"measurement": "MIC", "setting": "[6]", "result": 4.3, "unit": "µM"},
      {"measurement": "MIC", "setting": "Bacillus subtilis [7]", "result": 8.6, "unit": "µM"},
      {"measurement": "MIC", "setting": "Escherichia coli [8]", "result": 172, "unit": "µM"},
      {"measurement": "MIC", "setting": "Pseudomonas aeruginosa [9]", "result": 2.6, "unit": "µM"},
      {"measurement": "HC50", "setting": "[10]", "result": "> 172", "unit": "µM"},
      {"measurement": "MIC", "setting": "Zymomonas mobilis", "result": 33.9, "unit": "µM"}
    ]},
    {"compound": "CCCCCCCCCCCCCCCCC(=O)NCC(=O)N[C@@H](CC(C)C)C(=O)N[C@@H](CC(C)C)C(=O)N[C@@H](CCCCN)C(=O)N[C@@H](CCCNC(=N)N)C(=O)N[C@H](C(=O)N[C@@H](CCCCN)C(=O)N[C@H](C(=O)N[C@@H](CC(C)C)C(=O)N[C@@H](CC(C)C)C(=O)O)[C@@H](C)O)[C@@H](C)CC", "note": "(Heptadecanoyl-GLLKRIKTLL-OH)", "values": [
      {"measurement": "MIC", "setting": "Escherichia coli [3]", "result": 0.32, "unit": "µM"},
      {"measurement": "MIC", "setting": "Staphylococcus aureus [4]", "result": 0.32, "unit": "µM"},
      {"measurement": "HC50 at 1 h", "setting": "[5]", "result": 14.8, "unit": "µM"}
    ]},
    {"compound": "CC[C@H](C)[C@H](NC(=O)CCCCCNC(=O)[C@H](CC(C)C)NC(=O)[C@H](CC(C)C)NC(=O)[C@@H](NC(=O)[C@H](CCCCN)NC(=O)[C@@H](NC(=O)[C@H](CCCNC(=N)N)NC(=O)[C@H](CCCCN)NC(=O)[C@H](CC(C)C)NC(=O)[C@H](CC(C)C)NC(=O)CN)[C@@H](C)CC)[C@@H](C)O)C(=O)N[C@@H](CC(N)=O)C(=O)N[C@@H](CC(C)C)C(=O)N[C@@H](CCCCN)C(=O)N[C@@H](C)C(=O)N[C@@H](CC(C)C)C(=O)N[C@@H](C)C(=O)N[C@@H](C)C(=O)N[C@@H](CC(C)C)C(=O)N[C@@H](C)C(=O)N[C@@H](CCCCN)C(=O)N[C@@H](CCCCN)C(=O)N[C@H](C(=O)N[C@@H](CC(C)C)C(N)=O)[C@@H](C)CC", "values": [
      {"measurement": "MIC", "setting": "Staphylococcus aureus [11]", "result": 4, "unit": "µM"},
      {"measurement": "MIC", "setting": "Escherichia coli [12]", "result": 2, "unit": "µM"},
      {"measurement": "MIC", "setting": "Bacillus subtilis [13]", "result": 2, "unit": "µM"},
      {"measurement": "MIC", "setting": "Pseudomonas aeruginosa [14]", "result": 2, "unit": "µM"},
      {"measurement": "HC50 at 1 h", "setting": "[15]", "result": 60.2, "unit": "µM"}
    ]},
    {"compound": "CC(C)C[C@H](NC(=O)[C@H](CC(C)C)NC(=O)[C@H](CCCCN)NC(=O)[C@H](CCCCN)NC(=O)[C@H](Cc1ccc2ccccc2c1)NC(=O)[C@H](CCCNC(=N)N)NC(=O)[C@H](CCCCN)NC(=O)[C@H](CC(C)C)NC(=O)[C@H](CCCCN)NC(=O)CN)C(N)=O", "note": "(H-GKLKR[2Nal]KKLL-NH2)", "values": [
      {"measurement": "MIC", "setting": "Escherichia coli [16]", "result": 9.5, "unit": "µM"},
      {"measurement": "MIC", "setting": "Pseudomonas aeruginosa [17]", "result": 9.5, "unit": "µM"},
      {"measurement": "HC50", "setting": "[18]", "result": 50.1, "unit": "µM"},
      {"measurement": "MIC", "setting": "Enterococcus faecium [19]", "result": 13.7, "unit": "µM"},
      {"measurement": "MIC", "setting": "Staphylococcus aureus [20]", "result": 41, "unit": "µM"},
      {"measurement": "HC50 at 1 h", "setting": "[15]", "result": 50.1, "unit": "µM"}
    ]},
    {"compound": "CC(C)C[C@H](NC(=O)CN)C(=O)N[C@@H](CC(C)C)C(=O)N[C@@H](CCCCN)C(=O)N[C@@H](CCCCN)C(=O)N[C@@H](Cc1ccc2ccccc2c1)C(=O)N[C@@H](CCCCN)C(=O)N[C@H](C(=O)N[C@@H](CC(C)C)C(=O)N[C@@H](CC1CCCCC1)C(N)=O)[C@@H](C)O", "note": "(H-GLLKK[2Nal]KTL[Cha]-NH2)", "values": [
      {"measurement": "MIC", "setting": "Escherichia coli [16]", "result": 9.5, "unit": "µM"},
      {"measurement": "MIC", "setting": "Pseudomonas aeruginosa [17]", "result": 6.6, "unit": "µM"},
      {"measurement": "HC50", "setting": "[18]", "result": 26.6, "unit": "µM"},
      {"measurement": "MIC", "setting": "Enterococcus faecium [19]", "result": 4.6, "unit": "µM"},
      {"measurement": "MIC", "setting": "Staphylococcus aureus [20]", "result": 9.5, "unit": "µM"},
      {"measurement": "HC50 at 1 h", "setting": "[15]", "result": 26.6, "unit": "µM"}
    ]}
  ]
}
